In brackets after ≈: the same amount, converted by molar mass.
Key:
Mycobacterium leprae [1] = assay: Anti-leprotic activity against rifampicin-susceptible Mycobacterium leprae subcultures at 4 weeks assessed as ATP level per 10^7 cells at 0.2 mg/L measured by bioluminescence assay (reference value: 425 +/- 64 pg); type: functional
Mycobacterium leprae [2] = assay: Anti-leprotic activity against rifampicin-susceptible Mycobacterium leprae subcultures at 4 weeks assessed as ATP level per 10^7 cells at 0.3 mg/L measured by bioluminescence assay (reference value: 425 +/- 64 pg); type: functional
Mycobacterium leprae [3] = assay: Anti-leprotic activity against rifampicin-susceptible Mycobacterium leprae subcultures at 4 weeks assessed as ATP level per 10^7 cells at 0.1 mg/L measured by bioluminescence assay (reference value: 425 +/- 64 pg); type: functional
Mycobacterium leprae [4] = assay: Anti-leprotic activity against rifampicin-susceptible Mycobacterium leprae primary cultures at 4 weeks assessed as [3H]thymidine uptake per 5 times 10^7 cells at 0.3 mg/L incubated for 24 hrs (reference value: 1.05 +/- 0.16 pmol); type: functional
Mycobacterium leprae [5] = assay: Anti-leprotic activity against rifampicin-susceptible Mycobacterium leprae primary cultures at 4 weeks assessed as ATP level per 10^7 cells at 0.1 mg/L measured by bioluminescence assay (reference value: 332 +/- 46 pg); type: functional
Mycobacterium leprae [6] = assay: Anti-leprotic activity against rifampicin-susceptible Mycobacterium leprae primary cultures at 4 weeks assessed as ATP level per 10^7 cells at 0.2 mg/L measured by bioluminescence assay (reference value: 332 +/- 46 pg); type: functional
Mycobacterium leprae [7] = assay: Anti-leprotic activity against rifampicin-susceptible Mycobacterium leprae primary cultures at 4 weeks assessed as ATP level per 10^7 cells at 0.3 mg/L measured by bioluminescence assay (reference value: 332 +/- 46 pg); type: functional
Mycobacterium leprae [8] = assay: Anti-leprotic activity against rifampicin-susceptible Mycobacterium leprae primary cultures at 4 weeks assessed as ATP level per 10^7 cells at 0.4 mg/L measured by bioluminescence assay (reference value: 332 +/- 46 pg); type: functional
Mycobacterium leprae [9] = assay: Anti-leprotic activity against rifampicin-susceptible Mycobacterium leprae primary cultures at 4 weeks assessed as [3H]thymidine uptake per 5 times 10^7 cells at 0.1 mg/L incubated for 24 hrs (reference value: 1.05 +/- 0.16 pmol); type: functional
Mycobacterium leprae [10] = assay: Anti-leprotic activity against rifampicin-susceptible Mycobacterium leprae primary cultures at 4 weeks assessed as [3H]thymidine uptake per 5 times 10^7 cells at 0.2 mg/L incubated for 24 hrs (reference value: 1.05 +/- 0.16 pmol); type: functional
Mycobacterium leprae [11] = assay: Anti-leprotic activity against rifampicin-susceptible Mycobacterium leprae primary cultures at 4 weeks assessed as [3H]thymidine uptake per 5 times 10^7 cells at 0.4 mg/L incubated for 24 hrs (reference value: 1.05 +/- 0.16 pmol); type: functional
Mycobacterium leprae [12] = assay: Anti-leprotic activity against rifampicin-susceptible Mycobacterium leprae subcultures at 4 weeks assessed as ATP level per 10^7 cells at 0.4 mg/L measured by bioluminescence assay (reference value: 425 +/- 64 pg); type: functional
Mycobacterium leprae [13] = assay: Anti-leprotic activity against rifampicin-susceptible Mycobacterium leprae subcultures at 4 weeks assessed as [3H]thymidine uptake per 5 times 10^7 cells at 0.1 mg/L incubated for 24 hrs (reference value: 1.41 +/- 0.20 pmol); type: functional
Mycobacterium leprae [14] = assay: Anti-leprotic activity against rifampicin-susceptible Mycobacterium leprae subcultures at 4 weeks assessed as [3H]thymidine uptake per 5 times 10^7 cells at 0.2 mg/L incubated for 24 hrs (reference value: 1.41 +/- 0.20 pmol); type: functional
Mycobacterium leprae [15] = assay: Anti-leprotic activity against rifampicin-susceptible Mycobacterium leprae subcultures at 4 weeks assessed as [3H]thymidine uptake per 5 times 10^7 cells at 0.3 mg/L incubated for 24 hrs (reference value: 1.41 +/- 0.20 pmol); type: functional
Mycobacterium leprae [16] = assay: Anti-leprotic activity against rifampicin-susceptible Mycobacterium leprae subcultures at 4 weeks assessed as [3H]thymidine uptake per 5 times 10^7 cells at 0.4 mg/L incubated for 24 hrs (reference value: 1.41 +/- 0.20 pmol); type: functional
[17] = system: Mycobacterium tuberculosis; assay: Antimycobacterial activity against Mycobacterium tuberculosis H37Rv by BACTEC radiometric growth assay; type: functional
Mycobacterium leprae [18] = assay: (§1) Inhibition of PGL1 synthesis in Mycobacterium leprae infected Swiss Webster mouse macrophages assessed as decrease in [U-14C]PA incorporation at 2 uM preincubated for 4 days post infection followed by [U-14C]PA addition and measured after 7 days by liquid scintillation counter analysis relative to control; type: functional
[19] = system: Mycobacterium tuberculosis; assay: Antitubercular activity against Mycobacterium tuberculosis H37Rv ATCC 27294 incubated for 7 days by microplate alamar blue assay; type: functional; conditions: H37Rv ATCC 27294, 168 h
Monocyte [20] = assay: Antiinflammatory activity in human monocytes assessed as inhibition of LPS-induced TNFaplha production at 50 uM preincubated for 15 mins followed by LPS addition and measured after 4 hrs by ELISA relative to control; type: functional
Monocyte [21] = assay: Antiinflammatory activity in human monocytes assessed as inhibition of LPS-induced TNFaplha production at 25 uM preincubated for 15 mins followed by LPS addition and measured after 4 hrs by ELISA relative to control; type: functional
Monocyte [22] = assay: Antiinflammatory activity in human monocytes assessed as inhibition of LPS-induced TNFaplha production at 5 uM preincubated for 15 mins followed by LPS addition and measured after 4 hrs by ELISA relative to control; type: functional
[23] = Cytotoxicity against LPS-induced human monocytes assessed as cell viability at 50 uM by tryphan blue staining based assay relative to control; design: species or system Monocyte; conditions: read-out: Activity
Monocyte [24] = assay: Antiinflammatory activity in human monocytes assessed as inhibition of LPS-induced TNFaplha production at 0.5 uM preincubated for 15 mins followed by LPS addition and measured after 4 hrs by ELISA relative to control; type: functional
[25] = Cytotoxicity against LPS-induced human monocytes assessed as cell viability at 25 uM by tryphan blue staining based assay relative to control; design: species or system Monocyte; conditions: read-out: Activity
[26] = Cytotoxicity against LPS-induced human monocytes assessed as cell viability at 5 uM by tryphan blue staining based assay relative to control; design: species or system Monocyte; conditions: read-out: Activity
[27] = Cytotoxicity against LPS-induced human monocytes assessed as cell viability at 0.5 uM by tryphan blue staining based assay relative to control; design: species or system Monocyte; conditions: read-out: Activity
[28] = system: Mycolicibacterium smegmatis; assay: Antimycobacterial activity against DDS sensitive Mycobacterium smegmatis ATCC 607 […]; type: functional
[29] = system: Mycolicibacterium smegmatis; assay: Antimycobacterial activity against DDS resistant Mycobacterium smegmatis ATCC 607 […]; type: functional
Mycobacterium leprae [30] = assay: Anti-leprotic activity against Mycobacterium leprae infected in BALB/c mouse assessed as time delay in bacterial multiplication in footpad at 0.01 g/100g of diet administered via feed starting 60 or 75 day post infection up to 90 days by Shepard's kinetic method; type: functional
Mycobacterium leprae [31] = assay: Anti-leprotic activity against Mycobacterium leprae infected in BALB/c weanling mouse assessed as bacteria killing at 20 mg/kg, ip administrated for 60 days and measured after 1 year by most probable number technique analysis relative to control; type: functional
Mycobacterium leprae [32] = assay: Anti-leprotic activity against Mycobacterium leprae infected in BALB/c weanling mouse assessed as bacteria killing at 20 mg/kg, ip administrated for 60 days and measured after 1 year by Spearman-Karber technique analysis relative to control; type: functional
Mycobacterium leprae [33] = assay: as §1, with “20” for “2”; type: functional
Plasmodium berghei = assay: Antimalarial activity against Plasmodium berghei infected in albino mouse assessed survival against infection at 400 mg/kg, sc administered as single dose; type: functional
[34] = Drug excretion in rat urine at 400 mg/kg, sc administered as single dose measured after 30 days; type: ADME, organism-based; conditions: read-out: Drug excretion
[35] = Half life in rat at 400 mg/kg, sc administered as single dose; type: ADME, organism-based; conditions: in vivo
[36] = Drug concentration in rat blood at 400 mg/kg, sc administered as single dose; type: ADME, organism-based; conditions: in vivo
Rattus norvegicus = assay: Effect of metallo-protein haemoglobin in rat assessed as peak methemoglobin level at 400 mg/kg, sc administered as single dose; type: ADME, organism-based; conditions: in vivo

CCCN1CCN(c2cc(O)c3nc4c5c6c7c(C)c(O)c5c(=O)c(c-4oc3c2)NC(=O)/C(C)=C\C=C\[C@H](C)[C@H](O)[C@@H](C)[C@@H](O)[C@@H](C)[C@H](OC(C)=O)[C@H](C)[C@@H](OC)/C=C/O[C@@](C)(O7)C6=O)CC1
Activity (Mycobacterium leprae [1]): 0 pg | Activity (Mycobacterium leprae [2]): 0 pg | Activity (Mycobacterium leprae [3]): 369 pg | Activity (Mycobacterium leprae [4]): 0 pmol | Activity (Mycobacterium leprae [5]): 298 pg | Activity (Mycobacterium leprae [6]): 245 pg | Activity (Mycobacterium leprae [7]): 0 pg | Activity (Mycobacterium leprae [8]): 0 pg | Activity (Mycobacterium leprae [9]): 0.97 pmol | Activity (Mycobacterium leprae [10]): 0.79 pmol | Activity (Mycobacterium leprae [11]): 0 pmol | Activity (Mycobacterium leprae [12]): 0 pg | Activity (Mycobacterium leprae [13]): 0 pmol | Activity (Mycobacterium leprae [14]): 1.3 pmol | Activity (Mycobacterium leprae [15]): 0.84 pmol | Activity (Mycobacterium leprae [16]): 0 pmol

CO[C@H]1/C=C/O[C@@]2(C)Oc3c(C)c(O)c4c(O)c(c(/C=N/N5CCN(C)CC5)c(O)c4c3C2=O)NC(=O)/C(C)=C\C=C\[C@H](C)[C@H](O)[C@@H](C)[C@@H](O)[C@@H](C)[C@H](OC(C)=O)[C@@H]1C [RIFAMPIN]
Activity (Mycobacterium leprae [2]): 0 pg | MIC [17]: 2 µg/mL (≈ 2.43 µM) | inhibition at 2 µM (Mycobacterium leprae [18]): 86% | MIC [19]: 25 µg/mL (≈ 30.4 µM) | Activity (Mycobacterium leprae [4]): 0 pmol | Activity (Mycobacterium leprae [7]): 0 pg | Activity (Mycobacterium leprae [8]): 0 pg | Activity (Mycobacterium leprae [10]): 0.7 pmol | Activity (Mycobacterium leprae [11]): 0 pmol | Activity (Mycobacterium leprae [12]): 0 pg | Activity (Mycobacterium leprae [14]): 0 pmol | Activity (Mycobacterium leprae [15]): 0.73 pmol | Activity (Mycobacterium leprae [16]): 0 pmol

O=C1c2ccccc2C(=O)N1c1cnc(O)nc1O
inhibition at 50 µM (Monocyte [20]): < 10% | inhibition at 25 µM (Monocyte [21]): < 10% | inhibition at 5 µM (Monocyte [22]): < 10% | viability at 50 µM [23]: 91%

CCC1(N2C(=O)c3ccccc3C2=O)C(=O)NC(=O)N(c2ccccc2)C1=O (configuration not stated)
inhibition at 50 µM (Monocyte [20]): 100% | inhibition at 25 µM (Monocyte [21]): 100% | inhibition at 5 µM (Monocyte [22]): 88% | inhibition at 0.5 µM (Monocyte [24]): 12% | viability at 50 µM [23]: 68% | viability at 25 µM [25]: 73% | viability at 5 µM [26]: 80% | viability at 0.5 µM [27]: 87%

COc1ccc(S(=O)(=O)c2ccc(N)cc2)cc1
MIC [28]: 256 µg/mL (≈ 972 µM) | MIC [29]: > 500 µg/mL | Time (Mycobacterium leprae [30]): <10 days

O=C1c2ccccc2C(=O)N1c1ccc(F)c(F)c1
inhibition at 50 µM (Monocyte [20]): 100% | inhibition at 25 µM (Monocyte [21]): 100% | inhibition at 5 µM (Monocyte [22]): 84% | inhibition at 0.5 µM (Monocyte [24]): < 10% | viability at 50 µM [23]: 78% | viability at 25 µM [25]: 88% | viability at 5 µM [26]: 95% | viability at 0.5 µM [27]: 92%

GENTAMICIN
Activity (Mycobacterium leprae [31]): 58.5% | Activity (Mycobacterium leprae [32]): 60%

NNC(=O)c1ccncc1 [ISONIAZID]
MIC [17]: 0.1 to 0.4 µg/mL (≈ 0.729 to 2.92 µM) | inhibition at 20 µM (Mycobacterium leprae [33]): 29%

CCc1cc(C(N)=S)ccn1 [ETHIONAMIDE]
inhibition at 2 µM (Mycobacterium leprae [18]): 77% | inhibition at 20 µM (Mycobacterium leprae [33]): 97%

CCC(C)N1CCN(c2cc(O)c3nc4c5c6c7c(C)c(O)c5c(=O)c(c-4oc3c2)NC(=O)/C(C)=C\C=C\[C@H](C)[C@H](O)[C@@H](C)[C@@H](O)[C@@H](C)[C@H](OC(C)=O)[C@H](C)[C@@H](OC)/C=C/O[C@@](C)(O7)C6=O)CC1 (stereo in doubt; form 1)
Activity (Mycobacterium leprae [1]): 235 pg | Activity (Mycobacterium leprae [2]): 0 pg | Activity (Mycobacterium leprae [3]): 335 pg | Activity (Mycobacterium leprae [4]): 0 pmol | Activity (Mycobacterium leprae [5]): 279 pg | Activity (Mycobacterium leprae [6]): 233 pg | Activity (Mycobacterium leprae [7]): 0 pg | Activity (Mycobacterium leprae [8]): 0 pg | Activity (Mycobacterium leprae [9]): 0.92 pmol | Activity (Mycobacterium leprae [10]): 0.76 pmol | Activity (Mycobacterium leprae [11]): 0 pmol | Activity (Mycobacterium leprae [12]): 0 pg | Activity (Mycobacterium leprae [13]): 0 pmol | Activity (Mycobacterium leprae [14]): 1.18 pmol | Activity (Mycobacterium leprae [15]): 0.84 pmol | Activity (Mycobacterium leprae [16]): 0 pmol

NC[C@H]1O[C@H](O[C@H]2[C@H](O)[C@@H](O[C@H]3O[C@H](CO)[C@@H](O)[C@H](N)[C@H]3O)[C@H](N)C[C@@H]2N)[C@H](N)C[C@@H]1O [TOBRAMYCIN]
Activity (Mycobacterium leprae [31]): 28.7% | Activity (Mycobacterium leprae [32]): 37%

CC(=O)Nc1ccc(S(=O)(=O)c2ccc(N)cc2)cc1 [MONO-N-ACETYL DAPSONE]
Survival (Plasmodium berghei): 3.5 weeks | MIC [28]: 13.8 µg/mL (≈ 47.5 µM) | MIC [29]: > 300 µg/mL | dose excreted at 720 h [34]: 50% | half-life [35]: 32 days | Drug uptake [36]: 1.3 µg/mL | Activity (Rattus norvegicus): 1.2 g/dL | Time (Mycobacterium leprae [30]): 60 days

Nc1ccc(S(=O)(=O)c2ccc(O)cc2)cc1
MIC [28]: 12 µg/mL (≈ 48.1 µM) | MIC [29]: 2010 µg/mL (≈ 8050 µM) | Time (Mycobacterium leprae [30]): <10 days

Source: ChEMBL document CHEMBL4613212, “Insights of synthetic analogues of anti-leprosy agents” (Bioorg Med Chem, 2019)
